Reference: patent US20120277269A1 (priority 2008, published 2012)
Where two headings read alike, the source gives them in different places.

What was measured:
[1] = test system: AF patients; conditions: ACTIVE W; mean follow-up 1.3 years; cited from earlier work
[2] = test system: patients with atrial fibrillation at risk of stroke
Source text: Median follow-up was 2.0 years and the primary outcome was stroke or systemic embolism.
Patients were recruited from 951 clinical centers in 44 countries. In brief, patients were eligible if they had atrial fibrillation documented on electrocardiogram at screening or within 6 months; and at least one of the following: prior stroke or transient ischemic attack; left ventricular ejection fraction less than 40%; New York Heart Association heart failure symptoms of Class 2 or greater within 6 months; age at least 75 years; or age at least 65 years with diabetes mellitus, hypertension or coronary artery disease.
The time in therapeutic range was calculated by the method of Rosendaal (Rosendaal F R, et al., A method to determine the optimal intensity of oral anticoagulant therapy, Thromb Haemost, 1993, 69:236-239), excluding INRs from the first week and after discontinuations. […] Concomitant use of aspirin (less than 100 mg/day) or other antiplatelet agents was allowed.
Liver function testing was performed monthly during the first year of follow-up.
The primary study outcome was stroke or systemic embolism. The primary safety outcome was major hemorrhage. Secondary outcomes were stroke, systemic embolism and death. Other outcomes were myocardial infarction, pulmonary embolism, transient ischemic attacks, and hospitalizations. The primary net benefit-risk outcome was the composite of stroke, systemic embolism, pulmonary embolism, myocardial infarction, death or major hemorrhage. Stroke was defined as sudden onset of focal neurological deficit consistent with the territory of a major cerebral artery and categorized as ischemic, hemorrhagic or unspecified. Hemorrhagic transformation of ischemic stroke was not considered as hemorrhagic stroke. Intracranial hemorrhage included hemorrhagic stroke and sub-dural or sub-arachnoid hemorrhage. Systemic embolism was an acute vascular occlusion of an extremity or organ documented by imaging, surgery or autopsy. Major bleeding was defined as a reduction in hemoglobin level of at least […] or transfusion of at least 2 units of blood or symptomatic bleeding in a critical area or organ. Life-threatening bleeding was a subset of major bleeding that included fatal bleeding, symptomatic intracranial bleeding, bleeding with hemoglobin decrease of more than […] or requiring transfusion of more than 4 units of blood or requiring inotropic agents or necessitating surgery. All other bleeding was considered minor.
All primary and secondary outcome events were blindly and doubly adjudicated. An international team of adjudicators reviewed documents in local languages after blinding; or documents were translated by a independent group and blinded centrally. All transient ischemic attacks were reviewed to ensure that strokes had not been missed. To detect possible unreported events, symptom questionnaires were regularly administered to patients, and adverse events and hospitalization reports were scrutinized for unreported primary or secondary outcomes.
If maximum of the two p-values was greater than 0.025, the minimum of the two p-values must be less than 0.0125, one-sided, to claim statistical significance. All analyses were based on intention-to-treat.

[3] = test system: AF patients; conditions: BAFTA; mean follow-up 2.7 years; cited from earlier work
[4] = test system: AF patients; conditions: SPORTIF V; Warfarin vs. Ximelagatran; mean follow-up 1.66 years; cited from earlier work
[5] = test system: AF patients; conditions: SPORTIF III; Warfarin vs. Ximelagatran; mean follow-up 1.45 years; cited from earlier work

## CC(=O)CC(c1ccccc1)c1c(O)c2ccccc2oc1=O (racemic) [Warfarin, 3-(α-acetonylbenzyl)-4-hydroxycoumarin]
[1]
  Myocardial Infarction: 0.6% (warfarin)
[2]; Warfarin
  ALT or AST > 3xULN with concurrent bilirubin > 2xULN: (0.4) %
  Adverse Event: Arthralgia: (5.5) %
  Adverse Event: Atrial fibrillation: (5.4) %
  Adverse Event: Back pain: (5.5) %
  Adverse Event: Chest pain: (5.7) %
  Adverse Event: Cough: (5.8) %
  Adverse Event: Diarrhea: (5.5) %
  Adverse Event: Dizziness: (9.3) %
  Adverse Event: Dyspepsia: (1.4) %
  Adverse Event: Dyspnoea: (9.2) %
  Adverse Event: Fatigue: (5.9) %
  Adverse Event: Nasopharyngitis: (5.5) %
  Adverse Event: Peripheral edema: (7.6) %
  Adverse Event: Upper respiratory tract infection: (5.0) %
  Adverse Event: Urinary tract infection: (5.3) %
  Life threatening major bleeding, Rate: 1.80 /100 Person Years
  Liver Function Test Abnormalities: ALT or AST > 3xULN: (2.1) %
  Pulmonary embolism, Rate: 0.09 /100 Person Years
  Reason for discontinuation: Gastrointestinal bleeding: (0.9) %
  Reason for discontinuation: Gastrointestinal disorders (including pain, vomiting and diarrhea): (0.8) %
  Reason for discontinuation: SAE: (1.6) %
  hepatobiliary disorders (AE): (2.2) %
  hepatobiliary disorders (SAE): (0.4) %
[2]; warfarin, median follow-up 2.0 years
  Rate of primary outcome, stroke or systemic embolism: 1.70 % per year
[3]
  Myocardial Infarction: 1.1% (warfarin)
[4]
  Myocardial Infarction: 1.4% (warfarin)
[5]
  Myocardial Infarction: 0.6% (warfarin)
